{
  "source": "patent US20250115648A1",
  "about": "(priority 2013, published 2025)",
  "origin": "cited, not measured here",
  "conditions": "cited from earlier work; for Peak Abs.: peak absorbance wavelength of exemplary fluorescent reporter molecule; for Peak Em.: peak emission wavelength of exemplary fluorescent reporter molecule",
  "note": "Several values for one entry are separate records, joined by “and”; a condition that tells them apart may be missing. Identical values can stand only once.",
  "data": [
    {"compound": "CN1/C(=C/C=C/c2cc[n+](CCC[N+](C)(C)CCC[N+](C)(C)CCC[n+]3ccc(/C=C/C=C4/Sc5ccccc5N4C)cc3)cc2)Sc2ccccc21.[I-].[I-].[I-].[I-]", "note": "[BOBO-3]", "values": [
      {"measurement": "Peak Abs.", "value": "570 nanometers and 571 nanometers"},
      {"measurement": "Peak Em.", "value": "602 nanometers and 606 nanometers"}
    ]},
    {"compound": "CCCCCCCCCCCCCCCCCCN1/C(=C\\C=C\\c2oc3ccccc3[n+]2CCCCCCCCCCCCCCCCCC)Oc2ccccc21.[O-][Cl+3]([O-])([O-])[O-]", "note": "[DiO (Vybrant DiO)]", "values": [
      {"measurement": "Peak Abs.", "value": 489, "unit": "nanometers"},
      {"measurement": "Peak Em.", "value": 506, "unit": "nanometers"}
    ]},
    {"compound": "O=C(O)CSc1c(F)c(F)c(C(=O)O)c(-c2c3cc(F)c(=O)cc-3oc3cc(O)c(F)cc23)c1F", "note": "[Oregon Green 514]", "values": [
      {"measurement": "Peak Abs.", "value": 512, "unit": "nanometers"},
      {"measurement": "Peak Em.", "value": 532, "unit": "nanometers"}
    ]},
    {"compound": "CCCCCCCCCCCCCCCCCCN1/C(=C/C=C/C2=[N+](CCCCCCCCCCCCCCCCCC)c3ccccc3C2(C)C)C(C)(C)c2ccccc21.[O-][Cl+3]([O-])([O-])[O-]", "note": "[DiI (CellTrackerDiI)]", "values": [
      {"measurement": "Peak Abs.", "value": 551, "unit": "nanometers"},
      {"measurement": "Peak Em.", "value": 568, "unit": "nanometers"}
    ]},
    {"compound": "Cc1cc(=O)oc2c(F)c(O)c(F)cc12", "note": "[DiFMU (pH 9.0)]", "values": [
      {"measurement": "Peak Abs.", "value": 357, "unit": "nanometers"},
      {"measurement": "Peak Em.", "value": 450, "unit": "nanometers"}
    ]},
    {"compound": "CN(C)CCNc1ccc(O)c2c1C(=O)c1c(O)ccc(NCCN(C)C)c1C2=O", "note": "[DRAQ5]", "values": [
      {"measurement": "Peak Abs.", "value": 650, "unit": "nanometers"},
      {"measurement": "Peak Em.", "value": 680, "unit": "nanometers"}
    ]},
    {"compound": "CCN1c2cc3c(cc2C(C)=CC1(C)C)C(=CC=CC1=[N+](CCCCCC(=O)O)c2ccc(S(=O)(=O)[O-])cc2C1(C)C)C=C(c1ccccc1)O3", "note": "[DY-675]", "values": [
      {"measurement": "Peak Abs.", "value": 675, "unit": "nanometers"},
      {"measurement": "Peak Em.", "value": 699, "unit": "nanometers"}
    ]},
    {"compound": "O=C(O)CCCCCNc1ccc([N+](=O)[O-])c2nonc12", "note": "[NBD-X]", "values": [
      {"measurement": "Peak Abs.", "value": 467, "unit": "nanometers"},
      {"measurement": "Peak Em.", "value": 538, "unit": "nanometers"}
    ]},
    {"compound": "Fluo-4", "values": [
      {"measurement": "Peak Abs.", "value": 494, "unit": "nanometers"},
      {"measurement": "Peak Em.", "value": 540, "unit": "nanometers"}
    ]},
    {"compound": "CN1/C(=C/C=C/c2cc[n+](CCC[N+](C)(C)CCC[N+](C)(C)CCC[n+]3ccc(/C=C/C=C4/Oc5ccccc5N4C)cc3)cc2)Oc2ccccc21.[I-].[I-].[I-].[I-]", "note": "[POPO-3]", "values": [
      {"measurement": "Peak Abs.", "value": 532, "unit": "nanometers"},
      {"measurement": "Peak Em.", "value": 573, "unit": "nanometers"}
    ]},
    {"compound": "carboxytetramethyl-rhodamine [TAMRA]", "values": [
      {"measurement": "Peak Abs.", "value": 565, "unit": "nanometers"},
      {"measurement": "Peak Em.", "value": 580, "unit": "nanometers"}
    ]},
    {"compound": "CCN(CC)c1ccc2c(-c3ccc(S(=O)(=O)NCCCCCC(=O)O)cc3S(=O)(=O)[O-])c3ccc(=[N+](CC)CC)cc-3oc2c1", "note": "[rhodamine Red-X]", "values": [
      {"measurement": "Peak Abs.", "value": 572, "unit": "nanometers"},
      {"measurement": "Peak Em.", "value": 591, "unit": "nanometers"}
    ]},
    {"compound": "CCCCCCCCCCCCc1cc2nc3ccc(O)cc3oc-2cc1=O", "note": "[2-dodecylresorufm]", "values": [
      {"measurement": "Peak Abs.", "value": 582, "unit": "nanometers"},
      {"measurement": "Peak Em.", "value": 595, "unit": "nanometers"}
    ]},
    {"compound": "CC1=CC(C)(C)N(C)c2cc3[o+]c4cc5c(cc4c(-c4cc(NC(=O)c6ccc(CCl)cc6)ccc4C(=O)[O-])c3cc21)C(C)=CC(C)(C)N5C.CC1=CC(C)(C)N(C)c2cc3[o+]c4cc5c(cc4c(-c4ccc(NC(=O)c6ccc(CCl)cc6)cc4C(=O)[O-])c3cc21)C(C)=CC(C)(C)N5C", "note": "[CellTracker Red CMTPX]", "values": [
      {"measurement": "Peak Abs.", "value": 584, "unit": "nanometers"},
      {"measurement": "Peak Em.", "value": 613, "unit": "nanometers"}
    ]},
    {"compound": "COc1cc2cc(-c3ccc(C(=O)O)cc3C(=O)O)oc2cc1N1CCOCCOCCN(c2cc3oc(-c4ccc(C(=O)O)cc4C(=O)O)cc3cc2OC)CCOCCOCC1", "note": "[PBFI]", "values": [
      {"measurement": "Peak Abs.", "value": 360, "unit": "nanometers"},
      {"measurement": "Peak Em.", "value": 420, "unit": "nanometers"}
    ]},
    {"compound": "CCN(CC)c1ccc(/C=C/C=C/c2cc[n+](CC(O)C[N+](C)(C)CCO)cc2)cc1.[Br-].[Br-]", "note": "(stereo not drawn) [RH 795]", "values": [
      {"measurement": "Peak Abs.", "value": 530, "unit": "nanometers"},
      {"measurement": "Peak Em.", "value": 712, "unit": "nanometers"}
    ]},
    {"compound": "O=c1ccc2nc3ccc(O)c([As]4SCCS4)c3oc-2c1[As]1SCCS1", "note": "[ReAsH (TC-ReAsH)]", "values": [
      {"measurement": "Peak Abs.", "value": 593, "unit": "nanometers"},
      {"measurement": "Peak Em.", "value": 608, "unit": "nanometers"}
    ]},
    {"compound": "Cc1c(CC(=O)NCCCCCC(=O)O)c(=O)oc2cc(N)ccc12", "note": "[AMCA-X]", "values": [
      {"measurement": "Peak Abs.", "value": 353, "unit": "nanometers"},
      {"measurement": "Peak Em.", "value": 442, "unit": "nanometers"}
    ]},
    {"compound": "O=S(=O)(O)c1cccc2cccc(Nc3ccccc3)c12", "note": "[1,8-ANS]", "values": [
      {"measurement": "Peak Abs.", "value": 372, "unit": "nanometers"},
      {"measurement": "Peak Em.", "value": 480, "unit": "nanometers"}
    ]},
    {"compound": "CCN1C(=CC=CC=CC=CC2=[N+](CCCCCC(=O)O)c3ccc(S(=O)(=O)O)cc3C2(C)C)C(C)(C)c2cc(S(=O)(=O)[O-])ccc21", "note": "[Cy7]", "values": [
      {"measurement": "Peak Abs.", "value": 745, "unit": "nanometers"},
      {"measurement": "Peak Em.", "value": 766, "unit": "nanometers"}
    ]},
    {"compound": "O=S(=O)([O-])c1cc(Nc2nc(Nc3ccccc3)nc(N(CCO)CCO)n2)ccc1/C=C/c1ccc(Nc2nc(Nc3ccccc3)nc(N(CCO)CCO)n2)cc1S(=O)(=O)[O-].[Na+].[Na+]", "note": "[Phorwite AR]", "values": [
      {"measurement": "Peak Abs.", "value": 360, "unit": "nanometers"},
      {"measurement": "Peak Em.", "value": 430, "unit": "nanometers"}
    ]},
    {"compound": "Carboxynaphthofluorescein", "values": [
      {"measurement": "Peak Abs.", "value": 600, "unit": "nanometers"},
      {"measurement": "Peak Em.", "value": 674, "unit": "nanometers"}
    ]},
    {"compound": "O=C1OC2(c3ccc(O)cc3Oc3cc(O)ccc32)c2ccc(N=C=S)cc21", "note": "[FITC (Fluorescein), fluorescein isothiocyanine]", "values": [
      {"measurement": "Peak Abs.", "value": 492, "unit": "nanometers"},
      {"measurement": "Peak Em.", "value": 520, "unit": "nanometers"}
    ]},
    {"compound": "Allophycocyanin [APC (Allophycocyanin)]", "values": [
      {"measurement": "Peak Abs.", "value": 651, "unit": "nanometers"},
      {"measurement": "Peak Em.", "value": 660, "unit": "nanometers"}
    ]},
    {"compound": "CN(C)CCNC(=O)CCc1ccc2n1[B-](F)(F)[N+]1=C(c3ccc[nH]3)C=CC1=C2", "note": "[LysoTracker Red]", "values": [
      {"measurement": "Peak Abs.", "value": 573, "unit": "nanometers"},
      {"measurement": "Peak Em.", "value": 592, "unit": "nanometers"}
    ]},
    {"compound": "CCCCCCCCCCCCCCCCCCN1/C(=C\\C=C\\c2oc3ccccc3[n+]2CCCCCCCCCCCCCCCCCC)Oc2ccccc21.[O-][Cl+3]([O-])([O-])[O-]", "note": "[DiO]", "values": [
      {"measurement": "Peak Abs.", "value": 484, "unit": "nanometers"},
      {"measurement": "Peak Em.", "value": 501, "unit": "nanometers"}
    ]},
    {"compound": "Cascade Blue", "values": [
      {"measurement": "Peak Abs.", "value": "400 nanometers and 377 nanometers"},
      {"measurement": "Peak Em.", "value": 420, "unit": "nanometers"}
    ]},
    {"compound": "Cc1c(CC(=O)O)c(=O)oc2c(F)c(O)c(F)cc12", "note": "[Marina Blue]", "values": [
      {"measurement": "Peak Abs.", "value": 365, "unit": "nanometers"},
      {"measurement": "Peak Em.", "value": 460, "unit": "nanometers"}
    ]},
    {"compound": "Cl.Cl.N=C(N)c1ccc2oc(/C=C/c3cc4cc(C(=N)N)ccc4o3)cc2c1", "note": "[True Blue]", "values": [
      {"measurement": "Peak Abs.", "value": 365, "unit": "nanometers"},
      {"measurement": "Peak Em.", "value": 425, "unit": "nanometers"}
    ]},
    {"compound": "CN1/C(=C/c2cc[n+](CCC[N+](C)(C)CCC[N+](C)(C)CCC[n+]3ccc(/C=C4\\Sc5ccccc5N4C)c4ccccc43)c3ccccc23)Sc2ccccc21.[I-].[I-].[I-].[I-]", "note": "[TOTO-1]", "values": [
      {"measurement": "Peak Abs.", "value": 513, "unit": "nanometers"},
      {"measurement": "Peak Em.", "value": 531, "unit": "nanometers"}
    ]},
    {"compound": "Nitrobenzoxadiazole", "values": [
      {"measurement": "Peak Abs.", "value": 465, "unit": "nanometers"},
      {"measurement": "Peak Em.", "value": 510, "unit": "nanometers"}
    ]},
    {"compound": "Phycoerythrin [Phycoerythrin (PE, R-phycoerythrin)]", "values": [
      {"measurement": "Peak Abs.", "value": 567, "unit": "nanometers"},
      {"measurement": "Peak Em.", "value": 576, "unit": "nanometers"}
    ]},
    {"compound": "CN1C(=Cc2cc[n+](CCC[N+](C)(C)CCC[N+](C)(C)CCC[n+]3ccc(C=C4Sc5ccccc5N4C)cc3)cc2)Sc2ccccc21.[I-].[I-].[I-].[I-]", "note": "[BOBO-1]", "values": [
      {"measurement": "Peak Abs.", "value": 570, "unit": "nanometers"},
      {"measurement": "Peak Em.", "value": 602, "unit": "nanometers"}
    ]},
    {"compound": "O=C([O-])c1ccc(C2=c3cc4c5c(c3Oc3c2cc2c6c3CCCN6CCC2)CCC[N+]=5CCC4)c(C(=O)O)c1", "note": "[Compound 5-ROX]", "values": [
      {"measurement": "Peak Abs.", "value": 577, "unit": "nanometers"},
      {"measurement": "Peak Em.", "value": 603, "unit": "nanometers"}
    ]},
    {"compound": "CCCN(CCCN(C)C)c1cc(/C=C2/Sc3ccccc3N2C)c2ccccc2[n+]1-c1ccccc1", "note": "[SYBR Green I]", "values": [
      {"measurement": "Peak Abs.", "value": 497, "unit": "nanometers"},
      {"measurement": "Peak Em.", "value": 521, "unit": "nanometers"}
    ]},
    {"compound": "CCN1C(=CC=CC2=[N+](CCCCCC(=O)O)c3ccc(S(=O)(=O)O)cc3C2(C)C)C(C)(C)c2cc(S(=O)(=O)[O-])ccc21", "note": "[Cy3]", "values": [
      {"measurement": "Peak Abs.", "value": 552, "unit": "nanometers"},
      {"measurement": "Peak Em.", "value": 570, "unit": "nanometers"}
    ]}
  ]
}
